Measured values from patent EP0640095B1, “PROCESS FOR MAKING VANCOMYCIN” (ABBOTT LABORATORIES, priority 1992, dated 1993).
≈ marks a conversion by molar mass, not a printed value.

Experiment: Solubility of vancomycin as a function of pH (base crystallization)
Assay type: physicochemical
Conditions: pH 9; pH of 9.0 to 9.5
Excerpt: Prior to the base crystallization step, the pH of the solution must be optimized to maximize the efficiency of the crystallization. […]

CN[C@H](CC(C)C)C(=O)N[C@H]1C(=O)N[C@@H](CC(N)=O)C(=O)N[C@H]2C(=O)N[C@H]3C(=O)N[C@H](C(=O)N[C@H](C(=O)O)c4cc(O)cc(O)c4-c4cc3ccc4O)[C@H](O)c3ccc(c(Cl)c3)Oc3cc2cc(c3O[C@@H]2O[C@H](CO)[C@@H](O)[C@H](O)[C@H]2O[C@H]2C[C@](C)(N)[C@H](O)[C@H](C)O2)Oc2ccc(cc2Cl)[C@H]1O [vancomycin]
solubility: 5 to 20 mg/mL (≈ 3.45 to 13.8 mM)
